Laboratory results taken from US8952024B2, “Herbicidal pyrimidone derivatives” (E I du Pont de Nemours and Company, priority 2009, dated 2015).

Legend:
Experiment in all cases: Test D pre-/postemergence plant response
Type in all cases: in vivo
[1] = test system: mallow (common mallow, Malva sylvestris)
Method in brief: (§1)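 Greenhouse assay: sown seeds in loam/sand received preemergence spray; simultaneously, emerged seedlings (1- to 4-leaf, 2–18 cm) got postemergence spray of the same surfactant-containing formulation. Rating at 14–21 days by visual comparison with controls, 0 = no effect to 100 = complete control.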

[2] = test system: goosegrass (Eleusine indica)
Method in brief: as §1

[3] = test system: signalgrass (broadleaf signalgrass, Brachiaria platyphylla)
Method in brief: as §1

[4] = test system: Russian thistle (Salsola kali)
Method in brief: as §1

[5] = test system: dayflower (Virginia (VA) dayflower, Commelina virginica)
Method in brief: as §1

[6] = test system: black mustard (Brassica nigra)
Method in brief: as §1

[7] = test system: bluegrass (annual bluegrass, Poa annua)
Method in brief: as §1

[8] = test system: dallisgrass (Paspalum dilatatum)
Method in brief: as §1

[9] = test system: quackgrass (Elytrigia repens)
Method in brief: as §1

[10] = test system: morningglory (pitted morningglory, Ipomoea lacunosa)
Method in brief: as §1

[11] = test system: chickweed (common chickweed, Stellaria media); conditions: Postemergence
Method in brief: as §1

[12] = test system: large crabgrass (Digitaria sanguinalis)
Method in brief: as §1

[13] = test system: itchgrass (Rottboellia cochinchinensis)
Method in brief: as §1

[14] = test system: bermudagrass (Cynodon dactylon)
Method in brief: as §1

[15] = test system: purslane (common purslane, Portulaca oleracea)
Method in brief: as §1

[16] = test system: sandbur (southern sandbur, Cenchrus echinatus)
Method in brief: as §1

[17] = test system: barnyardgrass (Echinochloa crus-galli)
Method in brief: as §1

[18] = test system: ragweed (common ragweed, Ambrosia elatior)
Method in brief: as §1

[19] = Postemergence, 31 g ai/ha, scale 0 to 100
[20] = Postemergence, 62 g ai/ha, scale 0 to 100 (0 no effect, 100 complete control)
[21] = Postemergence, 125 g ai/ha, scale 0 to 100 (0 no effect, 100 complete control)
[22] = Postemergence, 16 g ai/ha, scale 0 to 100
[23] = Preemergence, 16 g ai/ha, scale 0 to 100, 0 no effect, 100 complete control
[24] = Preemergence, 31 g ai/ha, scale 0 to 100 (0 no effect, 100 complete control)
[25] = Preemergence, 62 g ai/ha, scale 0 to 100
[26] = Preemergence, 125 g ai/ha, scale 0 to 100
[27] = Postemergence, 31 g ai/ha, scale 0 to 100 (0 no effect, 100 complete control)

Structure (SMILES): O=C1CCCC(O)=C1C(=O)c1cnc(-c2ccccc2)n(CC2CCCO2)c1=O (stereo not drawn) [Compound 59]
- Plant response rating, Mallow [1, 19]: 5
- Plant response rating, Mallow [1, 20]: 5
- Plant response rating, Mallow [1, 21]: 40
- Plant response rating, Mallow [1, 22]: 0
- Plant response rating, Mallow [1, 23]: 0
- Plant response rating, Mallow [1, 24]: 65
- Plant response rating, Mallow [1, 25]: 65
- Plant response rating, Mallow [1, 26]: 65
- Plant response rating, Goosegrass [2, 19]: 20
- Plant response rating, Goosegrass [2, 20]: 50
- Plant response rating, Goosegrass [2, 21]: 65
- Plant response rating, Goosegrass [2, 22]: 20
- Plant response rating, Goosegrass [2, 23]: 0
- Plant response rating, Goosegrass [2, 24]: 5
- Plant response rating, Goosegrass [2, 25]: 20
- Plant response rating, Goosegrass [2, 26]: 80
- Plant response rating, Signalgrass [3, 19]: 5
- Plant response rating, Signalgrass [3, 20]: 10
- Plant response rating, Signalgrass [3, 21]: 20
- Plant response rating, Signalgrass [3, 22]: 5
- Plant response rating, Signalgrass [3, 23]: 0
- Plant response rating, Signalgrass [3, 24]: 0
- Plant response rating, Signalgrass [3, 26]: 5
- Plant response rating, Russian Thistle [4, 21]: 65
- Plant response rating, Russian Thistle [4, 24]: 90
- Plant response rating, Russian Thistle [4, 26]: 100
- Plant response rating, Dayflower, VA [5, 20]: 60
- Plant response rating, Dayflower, VA [5, 22]: 25
- Plant response rating, Dayflower, VA [5, 24]: 0
- Plant response rating, Dayflower, VA [5, 25]: 35
- Plant response rating, Dayflower, VA [5, 26]: 35
- Plant response rating, Black Mustard [6, 27]: 40
- Plant response rating, Black Mustard [6, 20]: 65
- Plant response rating, Black Mustard [6, 21]: 98
- Plant response rating, Black Mustard [6, 22]: 10
- Plant response rating, Black Mustard [6, 23]: 20
- Plant response rating, Black Mustard [6, 24]: 40
- Plant response rating, Black Mustard [6, 25]: 60
- Plant response rating, Black Mustard [6, 26]: 100
- Plant response rating, Bluegrass [7, 27]: 0
- Plant response rating, Bluegrass [7, 20]: 0
- Plant response rating, Bluegrass [7, 21]: 5
- Plant response rating, Bluegrass [7, 22]: 0
- Plant response rating, Bluegrass [7, 23]: 0
- Plant response rating, Bluegrass [7, 24]: 0
- Plant response rating, Bluegrass [7, 25]: 15
- Plant response rating, Bluegrass [7, 26]: 30
- Plant response rating, Dallisgrass [8, 19]: 10
- Plant response rating, Dallisgrass [8, 20]: 20
- Plant response rating, Dallisgrass [8, 21]: 50
- Plant response rating, Dallisgrass [8, 22]: 10
- Plant response rating, Dallisgrass [8, 23]: 0
- Plant response rating, Dallisgrass [8, 24]: 0
- Plant response rating, Dallisgrass [8, 25]: 65
- Plant response rating, Dallisgrass [8, 26]: 75
- Plant response rating, Quackgrass [9, 19]: 0
- Plant response rating, Quackgrass [9, 20]: 0
- Plant response rating, Quackgrass [9, 21]: 0
- Plant response rating, Quackgrass [9, 22]: 0
- Plant response rating, Quackgrass [9, 23]: 0
- Plant response rating, Quackgrass [9, 24]: 0
- Plant response rating, Quackgrass [9, 26]: 0
- Plant response rating, Morningglory [10, 19]: 40
- Plant response rating, Morningglory [10, 20]: 50
- Plant response rating, Morningglory [10, 21]: 50
- Plant response rating, Morningglory [10, 22]: 0
- Plant response rating, Morningglory [10, 23]: 0
- Plant response rating, Morningglory [10, 24]: 0
- Plant response rating, Morningglory [10, 25]: 0
- Plant response rating, Morningglory [10, 26]: 80
- Plant response rating, Chickweed ([11]; 31 g ai/ha, scale 0 to 100): 70
- Plant response rating, Chickweed ([11]; 62 g ai/ha, scale 0 to 100 (0 no effect, 100 complete control)): 70
- Plant response rating, Crabgrass, Large [12, 19]: 35
- Plant response rating, Crabgrass, Large [12, 20]: 50
- Plant response rating, Crabgrass, Large [12, 21]: 70
- Plant response rating, Crabgrass, Large [12, 22]: 35
- Plant response rating, Crabgrass, Large [12, 23]: 0
- Plant response rating, Crabgrass, Large [12, 24]: 35
- Plant response rating, Crabgrass, Large [12, 25]: 35
- Plant response rating, Crabgrass, Large [12, 26]: 65
- Plant response rating, Itchgrass [13, 19]: 15
- Plant response rating, Itchgrass [13, 20]: 15
- Plant response rating, Itchgrass [13, 21]: 75
- Plant response rating, Itchgrass [13, 22]: 0
- Plant response rating, Itchgrass [13, 23]: 0
- Plant response rating, Itchgrass [13, 24]: 0
- Plant response rating, Itchgrass [13, 25]: 0
- Plant response rating, Itchgrass [13, 26]: 20
- Plant response rating, Bermudagrass [14, 27]: 40
- Plant response rating, Bermudagrass [14, 20]: 70
- Plant response rating, Bermudagrass [14, 21]: 80
- Plant response rating, Bermudagrass [14, 22]: 35
- Plant response rating, Bermudagrass [14, 23]: 0
- Plant response rating, Bermudagrass [14, 24]: 0
- Plant response rating, Bermudagrass [14, 25]: 40
- Plant response rating, Bermudagrass [14, 26]: 90
- Plant response rating, Purslane [15, 19]: 35
- Plant response rating, Purslane [15, 20]: 35
- Plant response rating, Purslane [15, 21]: 50
- Plant response rating, Purslane [15, 22]: 35
- Plant response rating, Purslane [15, 23]: 65
- Plant response rating, Purslane [15, 24]: 100
- Plant response rating, Purslane [15, 25]: 100
- Plant response rating, Purslane [15, 26]: 100
- Plant response rating, Sandbur [16, 19]: 5
- Plant response rating, Sandbur [16, 20]: 5
- Plant response rating, Sandbur [16, 21]: 25
- Plant response rating, Sandbur [16, 22]: 5
- Plant response rating, Sandbur [16, 23]: 0
- Plant response rating, Sandbur [16, 24]: 0
- Plant response rating, Sandbur [16, 26]: 0
- Plant response rating, Barnyardgrass [17, 27]: 60
- Plant response rating, Barnyardgrass [17, 20]: 60
- Plant response rating, Barnyardgrass [17, 21]: 75
- Plant response rating, Barnyardgrass [17, 22]: 40
- Plant response rating, Barnyardgrass [17, 23]: 0
- Plant response rating, Barnyardgrass [17, 24]: 0
- Plant response rating, Barnyardgrass [17, 25]: 0
- Plant response rating, Barnyardgrass [17, 26]: 10
- Plant response rating, Ragweed [18, 19]: 70
- Plant response rating, Ragweed [18, 21]: 80
- Plant response rating, Ragweed [18, 22]: 70
- Plant response rating, Ragweed [18, 23]: 0
- Plant response rating, Ragweed [18, 24]: 50
- Plant response rating, Ragweed [18, 26]: 100

Structure (SMILES): COCCn1c(-c2ccsc2)ncc(C(=O)C2=C(O)C3CCC(C3)C2=O)c1=O (stereo not drawn) [Compound 228]
- Plant response rating, Mallow [1, 21]: 65
- Plant response rating, Goosegrass [2, 21]: 70
- Plant response rating, Signalgrass [3, 21]: 20
- Plant response rating, Russian Thistle [4, 21]: 65
- Plant response rating, Dayflower, VA [5, 21]: 85
- Plant response rating, Black Mustard [6, 27]: 20
- Plant response rating, Black Mustard [6, 21]: 50
- Plant response rating, Bluegrass [7, 27]: 0
- Plant response rating, Bluegrass [7, 21]: 5
- Plant response rating, Dallisgrass [8, 21]: 5
- Plant response rating, Quackgrass [9, 21]: 5
- Plant response rating, Morningglory [10, 21]: 50
- Plant response rating, Chickweed ([11]; 125 g ai/ha, scale 0 to 100 (0 no effect, 100 complete control)): 75
- Plant response rating, Crabgrass, Large [12, 21]: 75
- Plant response rating, Itchgrass [13, 21]: 65
- Plant response rating, Bermudagrass [14, 27]: 70
- Plant response rating, Bermudagrass [14, 21]: 70
- Plant response rating, Purslane [15, 21]: 35
- Plant response rating, Sandbur [16, 21]: 5
- Plant response rating, Barnyardgrass [17, 27]: 20
- Plant response rating, Barnyardgrass [17, 21]: 80
- Plant response rating, Ragweed [18, 21]: 75
